Experimental data from US8975289B2, “Benzyl aralkyl ether compounds, method for preparing same, intermediate compounds, use of said compounds, method for treatment and/or prevention, pharmaceutical composition and medicament containing same” (priority 2009, dated 2015).
Values after ≈ are worked out from the molar mass of the structure shown. Like-named read-outs stand apart in the source and are kept apart here.

Key:
Type in all cases: cell-based
Microsporum canis 373 = test: Broth microdilution MIC (M38-A), filamentous fungi, strain VI
Method: (§1) For the experiments of the present invention, the dermatophyte-type fungi strains that were obtained from clinical isolates and laboratory isolates, as described in Table 2 as follows, were used:
(§2) The fungal strains were grown on agar potato medium in a sloping chute at a temperature of 30° C. for a period of 7 to 15 days.
(§3) For the experiments, the compound 1-[2-(2,4-dichlorophenyl)-2-{[4-(trifluoromethyl)benzyl]oxy}ethyl]-1H-imidazole (BL-123) in the form of its nitrate salt and miconazole nitrate were used. Both compounds were dissolved in dimethyl sulfoxide (DMSO) to match the final concentration of the compound equal to or less than 1%.
(§4) The methodology used to test the sensitivity of the agent was of broth microdilution according to the method described in Standard M38-A (Reference method for broth dilution tests for determining the sensitivity to antifungal therapy for filamentous fungi; NCCLS, volume 22 No. 16, USA, 2008) as follows.
(§5) The fungus was cultivated pursuant to item 4.1. To the tubes wherein the fungi were grown, 5 mL of saline solution were added in order to extract the fungi from the agar surface. Then, this homogeneous suspension was transferred to a new tube and the colony-forming units (CFUs) were quantified according to counting methods: (i) in Sabouraud dextrose agar plates and (ii) in a Neubauer chamber.
(§6) Then, the fungi strains listed in Table 2 were inoculated in duplicate in a 96-well plate. There were used inocula of from 2 to 6×10^3 CFU/mL of fungi, per well, in a total volume of 0.2 mL of RPMI-1640 (containing L-glutamine and without bicarbonate) buffered at pH 7.0 with MOPS (acid 3-(N-morpholine) 15 propanesulfonic). The procedure was performed in a laminar flow.
(§7) The compounds to be tested were added in a serial dilution, in duplicate, in final concentrations of 16 μg/mL; 8 μg/mL; 4 μg/mL; 2 μg/mL; 1 μg/mL; 0.5 μg/mL; 0.25 μg/mL; 0.125 μg/mL; 0.0625 μg/mL; or 0.03125 μg/mL in culture medium present in each well.
(§8) The incubation of fungi with these compounds was performed by 4, 5, 6 and 7 days at temperatures from 30 to 35° C.
(§9) The fungi quantification was carried out with the growth of fungi in each well being compared to the growth occurred in the negative control by means of a mirror reading. The negative control is represented by fungi grown in culture medium in the absence of the tested compounds. The methodology of this comparison is the numerical rating to which the microdilution well was submitted. […]

[1] = system: Trichophyton verrucosum 381; test: Broth microdilution MIC (M38-A), filamentous fungi, strain VII; details: for MIC: Trichophyton verrucosum; for Resistance or sensitivity of the strain to the agent (in words): clinical isolate strain VII
Method: as §1, §2, §3, §4, §5, §6, §7, §8
(§10) The fungi quantification was carried out with the growth of fungi in each well being compared to the growth occurred in the negative control by means of a mirror reading. The negative control is represented by fungi grown in culture medium in the absence of the tested compounds. The methodology of this comparison is the numerical rating to which the microdilution well was submitted. In this methodology, value 4 corresponds to no reduction of growth, value 3 corresponds to a slight reduction in growth or approximately 75% of the growth of the negative control, value 2 corresponds to a standout reduction in growth or approximately 50% of growth of negative control; value 1 corresponds to a slight growth or approximately 25% of the growth of the negative control, and value 0 corresponds to optically clear or absence of growth.
(§11) In this experiment, the minimum inhibitory concentration (MIC) is considered as the lowest concentration of the agent capable of inhibiting at least 80% of the growth of colony-forming units (CFUs).

[2] = system: Trichophyton mentagrophytes 40004; test: Broth microdilution MIC (M38-A), filamentous fungi, strain X
Method: as §1, §2, §3, §4, §5, §6, §7, §8, §9

[3] = system: Trichophyton mentagrophytes 9533; test: Broth microdilution MIC (M38-A), filamentous fungi, strain XIII
Method: as §1, §2, §3, §4, §5, §6, §7, §8, §9

[4] = system: filamentous fungi strains of Table 2 (n = 13); test: MIC50, MIC90 and variation of MICs over the 13 strains of Table 2; details: for MIC50 / MIC90: n = 13 strains; for MIC50: read-out: MIC50 (minimum inhibitory concentration to inhibit 50% of strains), Average MIC; for MIC90: read-out: MIC90 (minimum inhibitory concentration to inhibit 90% of strains), Average MIC
Method: as §1, §2, §3, §4, §5, §6, §7, §8, §10, §11

Candida glabrata 2001 = test: Broth microdilution MIC (M27-A2), yeast, strain XVI; details: Nakaseomyces glabratus; strain XVI 2001, 48 hours incubation; read-out: MIC
Method: For the experiments of the present invention (i) yeast strains obtained from clinical isolates and laboratory isolates, and (ii) bacterial strains obtained from laboratory isolates were used, as described in Table 5 as follows. The yeast strains were grown in culture medium Sabouraud Dextrose Agar maintained at a temperature of 35° C. for 48 hours. […] The compounds were dissolved in dimethyl sulfoxide (DMSO) to match the final concentration of the compound equal to or less than 1%. The methodology used to test the sensitivity of the agent was broth microdilution according to the method described in Standard M27-A2 (Reference method for broth dilution tests to determine the sensitivity of yeasts to antifungal therapy-second edition, NCCLS, volume 22 number 15, USA, 2002) as follows. […] Then the suspensions were diluted in culture medium RPMI-1640 (buffered with MOPS 0.165 mol/l) at a final concentration of 50 to 2500 CFU/mL. The diluted suspensions were inoculated in duplicate in a 96-well plate. The procedure was performed in a laminar flow. […] The incubation of fungi with these compounds was carried out for 48 hours at temperature of 30 to 35° C. […] We have agreed in this experiment that the turbid medium is the result of microbial growth and the presence of deposit and a clear medium represents the absence of microbial growth. The minimum inhibitory concentration (MIC) was defined as the lowest tested drug concentration that prevents any degree of […] growth.

[5] = system: Staphylococcus epidermidis 12228; test: Broth microdilution MIC (M7-A6), bacteria, strain XVII; details: Staphylococcus epidermidis; strain XVII 12228, 24 hours incubation; read-out: MIC
Method: For the experiments of the present invention (i) yeast strains obtained from clinical isolates and laboratory isolates, and (ii) bacterial strains obtained from laboratory isolates were used, as described in Table 5 as follows. […] The compounds were dissolved in dimethyl sulfoxide (DMSO) to match the final concentration of the compound equal to or less than 1%. The methodology used to test the sensitivity of the agent was broth microdilution according to the method described in Standard M7-A6 (Methodology of sensitivity tests to antimicrobial agents by dilution for bacteria with aerobic growth-6th Edition: NCCLS, volume 23, No. 2, USA, 2003), as follows. […] Then the suspensions were diluted in Mueller Hinton culture medium to a final concentration of 5×10^4CFU/mL. The diluted suspensions were inoculated in 0.1 mL in duplicates in […] plates. The procedure was performed in a laminar flow. […] Incubation of fungi with these compounds was carried out for 24 hours at a temperature of 30 to 35° C. […] We have agreed in this experiment that the turbid medium is the result of microbial growth and the presence of deposit and a clear medium represents the absence of microbial growth. The minimum inhibitory concentration (MIC) was defined as the lowest tested drug concentration that prevents any degree of bacterial growth.

[6] = 96 h, strain VI 373, reading Day 4, average of four experiments
[7] = 168 h, strain VI 373, reading Day 7, average of four experiments
[8] = 96 h, strain VII 381, reading Day 4, average of four experiments
[9] = 168 h, strain VII 381, reading Day 7, average of four experiments
[10] = 96 h, strain X 40004, reading Day 4, average of four experiments
[11] = 168 h, strain X 40004, reading Day 7, average of four experiments
[12] = 96 h, strain XIII 9533, reading Day 4, average of four experiments
[13] = 168 h, strain XIII 9533, reading Day 7, average of four experiments

| SMILES | MIC (Microsporum canis 373; [6]) | MIC (Microsporum canis 373; [7]) | MIC [1, 8] | MIC [1, 9] | Resistance or sensitivity of the strain to the agent (in words) [1] | MIC [2, 10] | MIC [2, 11] | MIC [3, 12] | MIC [3, 13] | Inhibitory effect on growth (in words) ([4]; 13 different strains, seven different species) | MIC50 ([4]; 96 h, Day 4) | MIC90 ([4]; 96 h, Day 4) | MIC50 ([4]; 168 h, Day 7) | MIC90 ([4]; 168 h, Day 7) | MIC (Candida glabrata 2001) | MIC [5] |
| --- | --- | --- | --- | --- | --- | --- | --- | --- | --- | --- | --- | --- | --- | --- | --- | --- |
| FC(F)(F)c1ccc(COC(Cn2ccnc2)c2ccc(Cl)cc2Cl)cc1 (stereo not shown) [BL-123, 1-[2-(2,4-dichlorophenyl)-2-{[4-(trifluoromethyl)benzyl]oxy}ethyl]-1H-imidazole] | 0.125 µg/mL (≈ 0.301 µM) | 0.5 µg/mL (≈ 1.2 µM) | 4 µg/mL (≈ 9.63 µM) | > 16 µg/mL | sensitive | 0.25 µg/mL (≈ 0.602 µM) | 0.5 µg/mL (≈ 1.2 µM) | 0.03 µg/mL (≈ 0.0722 µM) | 0.125 µg/mL (≈ 0.301 µM) | exerts an inhibitory effect on growth | 0.25 µg/mL (≈ 0.602 µM) | 4 µg/mL (≈ 9.63 µM) | 0.5 µg/mL (≈ 1.2 µM) | 8 µg/mL (≈ 19.3 µM) | 0.125 µg/mL (≈ 0.301 µM) | 4 µg/mL (≈ 9.63 µM) |
| Clc1ccc(COC(Cn2ccnc2)c2ccc(Cl)cc2Cl)c(Cl)c1 (stereo not shown) [Miconazole, miconazole, reference compound] | 0.5 µg/mL (≈ 1.2 µM) | 1 µg/mL (≈ 2.4 µM) | > 16 µg/mL | > 16 µg/mL | resistant | 0.5 µg/mL (≈ 1.2 µM) | 1 µg/mL (≈ 2.4 µM) | 0.06 µg/mL (≈ 0.144 µM) | 0.125 µg/mL (≈ 0.3 µM) |  | 0.5 µg/mL (≈ 1.2 µM) | > 16 µg/mL | 1 µg/mL (≈ 2.4 µM) | > 16 µg/mL | 0.125 µg/mL (≈ 0.3 µM) | 2 µg/mL (≈ 4.81 µM) |
